Where a name gives a salt, the structure may show the parent alone. Read-outs that look alike come from different tables or passages of the source.
How the values were obtained:
U937 cells [1] = tested on: U937 cells
Protocol: This experiment is designed to compare the effects of two concentrations of sodium salicylate on U937 cells. Sodium salicylate was prepared at two concentrations: 20 mM and 5 mM. The escape velocities of the cells was tested at 5 hours, 24 hours and 47 hours. At each timepoint, 30 μl of sample was pelleted at 5,000 rpm for 5 minutes and then resuspended in PBS/1% BSA and trypan blue.

Jurkat cells = test: Experiment 5: TNF-α effect, escape velocity; assay type: cell-based; settings: TNF inhibitor added with TNF (FIG. 36)
Protocol: After 48 hours of incubation, the cells were removed and centrifuged for 5 minutes at 5,000 rpm. Then the cells were resuspended in PBS/1% BSA and trypan blue. A higher power setting, 140 mW instead of 100 mW, was used for this experiment. The escape velocities were measured as follows:
In this experiment Leflunomide and Silymarin were added with TNF to see if the anticipated increase in escape velocity measurements could be counteracted by the presence of the TNF inhibitors.

EM-3 cells = test: Experiments 9 and 9.1: Gleevec and other kinase inhibitors, fast scan; assay type: cell-based; settings: for Mean Distance: 1 μM, 48 hours of exposure
Protocol: A second group of cells were treated with 1 μM Src-Family Protein Tyrosine Kinase Inhibitor Set, obtained from CALBIOCHEM (Cat. No. 567816). The Src Set contained four inhibitors, namely, Genistein, Herbimycin A, Streptomyces sp., PP2, and PP3. A third group of cells were treated with 1 μM Staurosporine. A fourth group of cells were treated with 1 μM TK Inhibitor Set, also obtained from CALBIOCHEM (Cat. No. 657021). The TK Inhibitor Set contained five inhibitors, Genistein, PP2, AG490, AG1296, and AG1478. […] Measurements were taken after 48 hours of exposure.
Fast scan analysis was performed after 48 hours of incubation.

U937 cells [2] = test: Experiment 3: PMA inhibition by bisindolymaleimide, escape velocity; assay type: cell-based; settings: for average escape velocity / escape velocity, Ave.: four hours; for escape velocity, Ave.: no PMA
From the text: The objective of this experiment was to test the effect of bisindolymaleimide on cells exposed to PMA. Bisindolymaleimide is a Protein Kinase C inhibitor and should block the effect of PMA on U937 cells and their escape velocities. As shown in this and prior experiments, exposure of U937 cells to PMA results in an increase in the escape velocity of the cells. Therefore, it is anticipated that addition of bisindolymaleimide will reduce or eliminate the increase in escape velocity caused by PMA. This has in fact been observed in the data shown below.
Bisindolymaleimide was tested at two concentrations: 200 ng/ml and 50 ng/ml. Samples not treated with bisindolymaleimide received an equivalent amount of the carrier, MeOH, as a control. […] The concentration of PMA tested was 10 ng/ml. Samples not receiving PMA received DMSO.
Once the flasks were prepared, they were incubated at 37° C. 5% CO2 for four hours. At the four hour timepoint, 300 μl of cells were removed from each flask and pelleted at 5000 rpm for 5 minutes. The cells were then resuspended in 6 ml PBS/1% BSA and 60 μl trypan blue.

[3] = tested on: CD11b expression in HL-60 cells; test: FACS CD11b expression profile; assay type: cell-based; settings: 1% DMSO
Protocol: (§1) Fast scan analysis was also performed on HL-60 cells that were treated with PMA and DMSO. A time course evaluation of PMA treated HL-60 cells was performed with fast scan data taken at 16 hours, 24 hours, 40 hours, and 72 hours post-treatment with 400 ng/ml PMA. A control sample of HL-60 cells was also tested using EtOH as the vehicle for purposes of comparing the differentiated cells with the undifferentiated HL-60 cells. The PMA-treated and control cells were harvested and trypsinized. The samples were then resuspended in PBS/1% BSA. A set of samples was also obtained and left as pellets at 4° C. for subsequent FACS analysis.
FIG. 145 illustrates a histogram of the travel distance of the control cells as well as the PMA-treated cells at 16 hours, 24 hours, 40 hours, and 72 hours post-treatment. FIG. 146 illustrates the mean travel distances of the control cells as well as the PMA-treated cells at 16 hours, 24 hours, 40 hours, and 72 hours post-treatment. FIG. 147 illustrates the FACS CD11b expression profile in PMA-treated HL-60 cells as well as the control. CD11b is a known marker of cellular differentiation and is expressed on the surface of differentiating cells. […] The data illustrate that Optophoretic analysis can be used as an assay for the detection and quantification of cellular differentiation. […]

HL-60 cells = test: Cellular differentiation of HL-60, fast scan time course; assay type: cell-based; settings: 1% DMSO
Protocol: as §1
A time course evaluation of DMSO treated HL-60 cells was performed with fast scan data taken at 16 hours, 24 hours, 40 hours, and 70 hours post-treatment with 1% DMSO. A control sample of HL-60 cells was also tested for purposes of comparing the differentiated cells with the undifferentiated HL-60 cells. The DMSO-treated and control cells were then harvested and resuspended in PBS/1% BSA. A set of samples was also obtained and left as pellets at 4° C. for subsequent FACS analysis.

Chang liver cells [4] = test: Experiment 10: toxicity of ketoconazole, escape velocity; assay type: cell-based, human; settings: 1 μm ketoconazole, 1.5 hours of treatment
Protocol: (§2) This experiment is designed to test the effect of ketoconazole on human liver cells. Ketoconazole induces toxicity in liver cells. The sample cells were Chang liver cells. The concentration of ketoconazole used to treat the cells was 1 μm. Escape velocity and fast scan protocols were applied to determine the impact, if any, of ketoconazole treatment. […] Consequently, Optophoresis was able to detect an effect on the escape velocity of treated cells within 1.5 hours of exposure to ketoconazole. FIGS. 44-45 show the fast scan results of ketoconazole-treated Chang liver cells. […] The ketoconazole-treated cells generally traveled a smaller distance as compared to the non-treated control.

Chang liver cells [5] = assay type: cell-based; settings: human, 1 μm
Protocol: as §2

[6] = tested on: K562, BV-173, EM-3, and U-937 cells; test: Experiment 8: effect of Gleevec, escape velocity; assay type: cell-based; settings: 72 hours after exposure, all four cell types
From the text: The U-937 cells have no copies of the gene. The K-562 line of cells has, on average, one copy of the gene per cell. The BV-173line of cells has, on average, three copies of the gene per cell. The EM-3 cell line has, on average, five copies of the gene per cell. […] FIG. 44 illustrates the measured escape velocities (average) for each of the four cell types. […] In addition, the decrease in escape velocity for the Gleevec-treated cells was more pronounced in those cell lines that had higher copy numbers of the Bcr-Abl gene.

U937 cells [7] = tested on: U937 cells; remark: listed apart in the source
Protocol: Both groups of cells were incubated with compound in 0.1% DMSO (or simply 0.1% DMSO in the case of the control) for four hours. At the end of the incubation period, the cells were centrifuged down for 3-5 minutes at 5000 rpm in a Model V microcentrifuge (VWR scientific). The supernatant was then aspirated and the pellet resuspended in 1 ml PBS/1% BSA buffer plus 1:10 trypan blue. Escape velocity measurements were then taken of the cells.
The different groups of cells were incubated for various time periods (3, 6, 9, and 24 hours) and escape velocity measurements were made. At the end of the incubation period, the cells were centrifuged down for five minutes at 5000 rpm. The supernatant was then removed and the pellet resuspended in 1 ml PBS/1% BSA buffer plus 1:10 trypan blue. The cells were then loaded onto a cover slip containing agarose that was spin-coated onto the surface thereof.
The cells were incubated for four hours and prepped for testing in accordance with the procedures described above in the prior experiments. The cells were then loaded onto a cover slip containing agarose that was spin-coated onto the surface thereof. Escape velocity measurements were then taken using a 100 mW laser with a diameter of 21.5 pixels.
The groups of cells were incubated (or simply 0.1% DMSO in the case of the control) for six hours. At the end of the incubation period, the cells were centrifuged down for five minutes at 5000 rpm. The supernatant was then removed and the pellet resuspended in 1 ml PBS/1% BSA buffer plus 1:10 trypan blue. The cells were then loaded onto a cover slip containing agarose that was spin-coated onto the surface thereof. Escape velocity measurements were then taken using a 100 mW laser with a diameter of 28 pixels. Escape velocity measurements were then taken of the cells.
The groups of cells were incubated for six hours with compound (or simply DMSO in the case of the control). At the end of the incubation period, the cells were centrifuged down for five minutes at 5000 rpm. […]

CCRF-CEM cells = test: Experiment 14, fifth experiment: topotecan on sensitive cell line, escape velocity; assay type: cell-based; settings: 10 μM topotecan, 6 hours
Protocol: In a fifth experiment, two different cell lines obtained from ATCC which have varying degrees of sensitivity to topoisomerase I inhibitors such as camptothecin and topotecan were subject to Optophoretic analysis. A group of cells from a parental cell line CCRF-CEM that is sensitive to camptothecin and topotecan were incubated for 6 hours with 10 μM topotecan. Another group of cells from the cell line CEM/C2, which are 970-fold less sensitive to camptothecin and topotecan, were also incubated for 6 hours with 10 μM topotecan. Control cells from both the CCRF-CEM and CEM/C2 cell lines were also tested. The cells were incubated for six hours and prepared for testing in accordance with the procedures described above in the prior experiments. The cells were then loaded onto a cover slip containing agarose that was spin-coated onto the surface thereof. Escape velocity measurements were then taken using a 100 mW laser with a diameter of 28 pixels. […] Optophoretic analysis was thus able to score cross-resistance of camptothecin-resistant cell lines to topotecan, an analog of camptothecin.

CEM/C2 cell line = settings: cell lines obtained from ATCC; cited from earlier work

Compound: O=C([O-])c1ccccc1O.[Na+] [Sodium Salicylate, sodium salicylate]
- shift in escape velocities (U937 cells [1]; 5 mM and 20 mM salicylic acid, 5 and 24 hours (FIG. 37)): slight but statistically significant shift in escape velocities
- escape velocity, Ave. (U937 cells [1]; 5 mM sodium salicylate, 5 hours): 14.1
- escape velocity, Ave. (U937 cells [1]; 5 mM sodium salicylate, 24 hours): 15.2
- escape velocity, Ave. (U937 cells [1]; 5 mM sodium salicylate, 47 hours): 13.7
- escape velocity, Ave. (U937 cells [1]; 20 mM sodium salicylate, 5 hours): 13.3
- escape velocity, Ave. (U937 cells [1]; 20 mM sodium salicylate, 24 hours): 16.0
- cell viability (trypan blue) (U937 cells [1]; 20 mM, 47 hours): all cells were dead

Compound: Cc1oncc1C(=O)Nc1ccc(C(F)(F)F)cc1 [Leflunomide]
- effect on the increase in escape velocity caused by TNF (Jurkat cells): mitigate the increase in escape velocity caused by TNF

Compound: CN[C@@H]1C[C@H]2O[C@@](C)([C@@H]1OC)n1c3ccccc3c3c4c(c5c6ccccc6n2c5c31)C(=O)NC4 [Staurosporine]
- Mean Distance (EM-3 cells): 9.250 μm

Compound: CN(C)CCCn1cc(C2=C(c3c[nH]c4ccccc34)C(=O)NC2=O)c2ccccc21 [Bisindolymalemide]
- average escape velocity (U937 cells [2]; 50 ng/ml bisindolymaleimide + 10 ng/ml PMA): 15.1 μm/sec
- escape velocity, Ave. (U937 cells [2]; 50 ng/ml bisindolymaleimide): 13.9
- effect on the optophoretic shift in escape velocity caused by PMA (U937 cells [2]; 200 ng/ml BIMI for 30 minutes followed by 10 ng/ml PMA (FIG. 33)): blocked the optophoretic shift in escape velocity
- average escape velocity (U937 cells [2]; 200 ng/ml bisindolymaleimide + 10 ng/ml PMA): 14.5 μm/sec
- escape velocity, Ave. (U937 cells [2]; 200 ng/ml bisindolymaleimide): 14.0

Compound: C[S+](C)[O-] [DMSO, dimethylsulfoxide]
- time after treatment at which FACS detected a change in CD11b expression levels [3]: 40 h
- course of mean travel distance (HL-60 cells; 16 to 72 hours (FIG. 149)): mean travel distance progressively decreased as time elapsed
- time after treatment at which a noticeable decrease in mean travel distance was detected (HL-60 cells; fast scan): ≤ 16 h

Compound: CC(=O)N1CCN(c2ccc(OCC3COC(Cn4ccnc4)(c4ccc(Cl)cc4Cl)O3)cc2)CC1 (stereo not drawn) [ketoconazole]
- escape velocity versus control (Chang liver cells [4]): marked decrease in escape velocity
- mean travel distance (Chang liver cells [5]): 20.97 μm

Compound: Cc1ccc(NC(=O)c2ccc(CN3CCN(C)CC3)cc2)cc1Nc1nccc(-c2cccnc2)n1 [Gleevec, imatinib mesylate]
- escape velocity as compared to non-treated cells [6]: significantly lower escape velocity
- Mean Distance (EM-3 cells): 13.199 μm
- response of mean travel distance to varying concentration (EM-3 cells; 0.06 to 4 μM Gleevec, 48 hours): dose-dependent response

Compound: CC[C@@]1(O)C(=O)OCc2c1cc1n(c2=O)Cc2cc3c(CN(C)C)c(O)ccc3nc2-1 [topotecan]
- shift in escape velocity (U937 cells [7]; 4 μg/ml, four hours (FIG. 54)): larger shift in escape velocity as compared to the camptothecin-treated cells
- cell death (U937 cells [7]; human, 24 h, 10 μM): virtually all of the treated U937 cells were dead
- potency by escape velocity concentration curves (U937 cells [7]; six hours, FIG. 65 versus FIG. 70): higher potency of topotecan as compared to camptothecin
- decrease in escape velocity (CCRF-CEM cells): larger decrease in escape velocity as compared to the CEM/C2 cells
- fold less sensitive than parental CCRF-CEM (CEM/C2 cell line): 970 fold

— patent US20040121307A1, “Early detection of cellular differentiation using optophoresis” (Genoptix, Inc, priority 2002, published 2004)
